Laboratory results as given in PubChem BioAssay AID488888 (Sanford-Burnham Center for Chemical Genomics, 2010).
Active and inactive are the calls of the source.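 The calls were made as follows: active = mean EC50, the dose giving half of full activation, below a set limit (actives reach about 84 µM in these data); inactive = the rest.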

Target: Alkaline phosphatase, placental type (Homo sapiens) (UniProt P05187)
Assay: activation of placental alkaline phosphatase – biochemical, uHTS hits, luminescence, selectivity assay for human IAP activator project, dose response (AID 488888)
Settings: purified PLAP, CDP-Star luminescence, 30 min

Sequence of Alkaline phosphatase, placental type (Homo sapiens) (P05187 whole entry, looked up): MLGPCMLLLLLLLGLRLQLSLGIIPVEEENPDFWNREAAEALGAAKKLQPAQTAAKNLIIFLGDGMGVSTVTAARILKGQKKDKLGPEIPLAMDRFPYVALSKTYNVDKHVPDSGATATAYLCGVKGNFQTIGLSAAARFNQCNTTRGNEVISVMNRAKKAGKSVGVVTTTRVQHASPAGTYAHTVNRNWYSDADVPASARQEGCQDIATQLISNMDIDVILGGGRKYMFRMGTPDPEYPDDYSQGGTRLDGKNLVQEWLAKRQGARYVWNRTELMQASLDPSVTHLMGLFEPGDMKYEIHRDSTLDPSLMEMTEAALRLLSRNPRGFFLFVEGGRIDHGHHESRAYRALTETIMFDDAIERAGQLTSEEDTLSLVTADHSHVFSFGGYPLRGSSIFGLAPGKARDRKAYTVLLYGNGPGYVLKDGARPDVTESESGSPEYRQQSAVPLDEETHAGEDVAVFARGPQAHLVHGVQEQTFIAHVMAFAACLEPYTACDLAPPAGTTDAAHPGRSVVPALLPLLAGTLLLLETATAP

Point of comparison: `CC1=NN(c2nc3ccccc3[nH]2)C(=O)/C1=C/N(C)C`, EC50 15.3 µM. Against it:
- O=C(CCN1C(=O)/C(=C/c2ccccc2Cl)SC1=S)NNC(=O)c1ccccc1O — 1.7-fold higher, 25.3 µM
- CCOc1ccc(CC(=O)NNC(=S)NC2CCCCC2)cc1OCC — within 1.5-fold, 20.4 µM
- Cc1cc(Br)ccc1SCC(=O)OC/C(O)=C(\C#N)c1nc2ccccc2[nH]1 — 1.7-fold higher, 25.5 µM
- Cc1nc(Nc2nc3c(c(=O)[nH]2)CCC3)nc2ccccc12 — within 1.5-fold, 18.7 µM
- O=C(NC(=S)NNC(=O)c1ccccc1O)c1ccc(F)cc1 — within 1.5-fold, 13.6 µM
- CC(C)(C)NC(=O)C(=O)NNC(=O)COc1ccccc1 — 2.3-fold higher, 35.9 µM
- COc1ccccc1CNC(=O)CN(c1ccc(C)cc1)S(=O)(=O)c1c(C)noc1C — 5.8-fold higher, 88.3 µM
- CCOc1cccc(-c2nc(C(N)=O)c3[nH]c(=O)n(-c4cccc(Cl)c4)c3n2)c1O — 8-fold lower, 1.91 µM
- Cc1c(C(=O)N/N=C/c2c(O)ccc3ccccc23)nnn1-c1nonc1N — within 1.5-fold, 16.4 µM
- Cc1cc(OCC(=O)Nc2ncn[nH]2)ccc1Cl — within 1.5-fold, 17 µM
- O=C(NNC(=S)NC(=O)c1ccccc1[N+](=O)[O-])c1ccccc1O — within 1.5-fold, 10.5 µM
- CCN(CC)c1ccc(/C=N/NC(=O)c2nnn(-c3nonc3N)c2C(C)C)c(O)c1 — 4.8-fold higher, 73.7 µM
- Cc1nn(C)c(C(=O)NNC(=S)NCc2ccccc2)c1Cl — within 1.5-fold, 18.6 µM
- O=Nc1[nH]c(=O)c(/C=C(\O)c2ccccc2)nc1NO — 1.6-fold lower, 9.75 µM
- O=C(NN1C(=O)CSC1=S)C(=O)NN1C(=O)CSC1=S — within 1.5-fold, 14.5 µM
- c1ccc(-c2cccc(-c3ccccn3)n2)nc1 — 1.8-fold higher, 27.1 µM
- COc1ccccc1C1=NN(C2=NN=C(N)Cc3ncnn32)C(O)(C(F)(F)F)C1 (centres undefined) — within 1.5-fold, 12.3 µM
- Cc1cc(C(=O)NC2CC(C)(C)Cc3c2cnn3-c2ccccc2)n[nH]1 (centres undefined) — 3.5-fold higher, 53.1 µM
- COc1cc(NC(=O)NCC2CCN(Cc3ccccc3C)CC2)cc(OC)c1OC — 5.2-fold higher, 78.9 µM
- Cc1nc2c3ccccc3nc(NNC(=O)CCC(=O)NCCC(C)C)n2n1 — within 1.5-fold, 13.9 µM
- O=c1cc(-c2ccccc2)[nH]n1-c1nc2ccccc2[nH]1 — within 1.5-fold, 15.2 µM
- O=C(N/N=C/c1ccc(O)cc1O)C(=O)N/N=C/c1ccc(O)cc1O — 2.7-fold lower, 5.73 µM
- Cc1ccc(O)c(/C=N/NC(=O)c2[nH]ncc2Br)c1 — 4.9-fold higher, 75.5 µM
- Cc1cccc(CC(Cc2nc3ccccc3[nH]2)c2nc3ccccc3[nH]2)c1 (centres undefined) — 4-fold higher, 60.8 µM
- CCOCCCNC(=O)CCC(=O)NNc1nc2ccccc2c2nc(-c3ccccc3)nn12 — within 1.5-fold, 19.1 µM
- Cc1nc(S/C(=C/c2ccc(-c3ccc(Cl)cc3)o2)C(=O)O)n[nH]1 — within 1.5-fold, 13.2 µM
- COc1ccccc1N(C)S(=O)(=O)c1ccc(Cl)c(C(=O)NNC(=O)c2ccccc2O)c1 — within 1.5-fold, 19.5 µM
- Cn1c(/C(C#N)=C(\O)c2ccc(Br)s2)nc2ccccc21 — 4.1-fold higher, 62.2 µM
- CSCCC(NS(=O)(=O)c1ccccc1F)C(=O)NNC(=O)c1csc(N2CCOCC2)n1 (centres undefined) — within 1.5-fold, 12.5 µM
- CN(Cc1ccccc1)C(=O)c1[nH]cnc1C(=O)Nc1nccs1 — within 1.5-fold, 17.8 µM
- COc1cc(NC(=O)NCC2CCN(Cc3ccccc3Cl)CC2)cc(OC)c1OC — 4.2-fold higher, 64.2 µM
- COc1ccc(OC)c(NC(=O)c2cc(-c3cc(C)ccc3O)n[nH]2)c1 — 1.5-fold higher, 23.1 µM
- Cc1cc(=O)[nH]c(-n2[nH]c3c(c2=O)CCCC3)n1 — within 1.5-fold, 13.6 µM
- Cc1ccc(NC(=O)NNC(=O)c2cc3ccccc3cc2O)cc1 — the same, 15.3 µM
- O=C(NNC(=S)NC1CCCCC1)c1ccccc1Br — within 1.5-fold, 16.4 µM
- CCOc1cc(/C=N/NC(=O)C(=O)N/N=C/c2ccc(O)c(OCC)c2)ccc1O — 4.6-fold higher, 70 µM
- CCOC(=O)c1c(C)[nH]c(C(=O)N/N=C/c2cc([N+](=O)[O-])ccc2O)c1C — 1.5-fold higher, 23.2 µM
- CC(C)(C)OC(=O)N1CCC(NC(=O)c2[nH]cnc2C(=O)Nc2ccon2)CC1 — within 1.5-fold, 15.2 µM
- CN(C)S(=O)(=O)c1cccc(NC(=S)NNC(=O)c2cc3ccccc3cc2O)c1 — within 1.5-fold, 13.5 µM
- Cc1ccccc1CN1CCC(n2nccc2NC(=O)CCCc2ccccc2)CC1 — 4.9-fold higher, 75.2 µM
- CC(C)C(=O)NC(=S)Nc1ccccc1C(=O)Nc1ccccc1 — 1.6-fold lower, 9.82 µM
- Cc1cccc(NS(=O)(=O)c2cccc(C(=O)NNC(=O)c3ccccc3O)c2)c1 — 2.8-fold higher, 42.3 µM
- CC(C)Oc1ccc(CCC(=O)NNC(=S)NCc2ccccc2)cc1 — within 1.5-fold, 21.2 µM
- O=C(Cc1ccc(Cl)c(Cl)c1)NNC(=S)NCC1CCCO1 (centres undefined) — within 1.5-fold, 20.7 µM
- CC(C)CC(=O)NC(=S)NNC(=O)c1ccc(NC(=O)C2CCCCC2)cc1 — 4-fold higher, 61.6 µM
- CN(CC(=O)Nc1ccccc1F)CC(=O)Nc1ccc(F)c(F)c1F — 1.9-fold higher, 28.4 µM
- Cc1cc(C)cc(CC(Cc2nc3ccccc3[nH]2)c2nc3ccccc3[nH]2)c1 (centres undefined) — 5.4-fold higher, 82.7 µM
- Cc1ccsc1C(=O)NNC(=S)NC1CCCCC1 — within 1.5-fold, 14.3 µM
- CCCOCC(O)CC(CC)C(=O)NNC(=S)Nc1ccccc1 (centres undefined) — within 1.5-fold, 16.7 µM
- CCn1c(C)nc2cc(C(=O)N/N=C/c3cccc(O)c3O)ccc21 — within 1.5-fold, 10.9 µM
- Cc1[nH]n(-c2nc(-c3ccccc3)cc(=O)[nH]2)c(=O)c1CCO — 2-fold higher, 30.8 µM
- O=C(NNC(=S)NCc1ccco1)c1ccccc1Br — within 1.5-fold, 13.7 µM
- CC(NC(=S)NC1CCC(C(C)(C)C)CC1)c1ccccc1 (centres undefined) — 2.7-fold higher, 41.1 µM
- Cc1cccc(OCC(=O)NNC(=O)c2ccc3nc[nH]c3c2)c1 — within 1.5-fold, 15.6 µM
- Cc1ccc(S(=O)(=O)NCCC(=O)NNC(=O)COc2ccc(Br)cc2)cc1C — within 1.5-fold, 16.7 µM
- CSCCC(NS(=O)(=O)c1ccc(C)cc1)C(=O)NNC(=O)c1csc(N2CCOCC2)n1 (centres undefined) — within 1.5-fold, 16.1 µM
- CCn1c(C)nc2cc(C(=O)NNC(=S)Nc3ccccc3)ccc21 — within 1.5-fold, 14.7 µM
- CCc1ccc(/C=N/Nc2ncnc3nc[nH]c23)cc1 — within 1.5-fold, 13.4 µM
- CCn1nc(C)c(CN2CCC(C(=O)Nc3cccc(-c4cccc(F)c4)c3)CC2)c1C — 3.5-fold higher, 53.7 µM
- Cc1cccc(-n2ncc3c(NNC(=O)c4ccco4)ncnc32)c1 — 1.7-fold lower, 9.19 µM
- O=C(Nc1ccon1)c1nc[nH]c1C(=O)NCc1ccccc1 — within 1.5-fold, 15.5 µM
- COc1cccc(/C=N\NC(=O)C2=NNC(=O)C2C)c1O (centres undefined) — 2-fold lower, 7.82 µM
- O=C(CCCCC(=O)NNC(=O)COc1ccccc1)NNC(=O)COc1ccccc1 — within 1.5-fold, 12 µM
- CC(NS(=O)(=O)c1ccc(Br)cc1)C(=O)Nc1nc2ccccc2[nH]1 (centres undefined) — within 1.5-fold, 14.7 µM
- CCOc1ccc(/C=N/NC(=O)c2[nH]ncc2Br)c(O)c1 — within 1.5-fold, 11.2 µM
- CC(C)Oc1ccc(C(=O)Nc2ncn[nH]2)cc1 — 1.6-fold higher, 24.1 µM
- Cc1cc(C)cc(OCC(=O)NNC(=O)c2cc(C)[nH]n2)c1 — within 1.5-fold, 18.7 µM
- CCC(C)(C)C1CCc2[nH]nc(C(=O)N/N=C(\C)c3ccco3)c2C1 (centres undefined) — 3.9-fold higher, 59.3 µM
- CC1C(=O)NN=C1C(=O)N/N=C\c1ccc(O)cc1O (centres undefined) — within 1.5-fold, 13.2 µM
- COc1cc(CN2CCC(n3nccc3NC(=O)CCCc3ccccc3)CC2)ccc1F — 5.3-fold higher, 81.4 µM
- COc1ccccc1CN1CCC(n2nccc2NC(=O)CCCc2ccccc2)CC1 — 4.5-fold higher, 69 µM
- COc1ccc(C2=NN(C3=NN=C(N)Cc4ncnn43)C(O)(C(F)(F)F)C2)cc1 (centres undefined) — within 1.5-fold, 14.4 µM
- O=C(N/N=C/c1c(F)cccc1Cl)c1cc(C2CC2)[nH]n1 — 4.4-fold higher, 66.8 µM
- O=C(/C=C/c1cccs1)NC(=S)NNC(=O)c1ccccc1O — within 1.5-fold, 12.7 µM
- CC(=O)Nc1cccc(C(=O)NNC(=O)c2n[nH]c(=O)c3ccccc23)c1 — within 1.5-fold, 12.5 µM
- C=CCn1c(O)c(N=Nc2ccccc2O)c2ccccc21 — 23-fold lower, 0.663 µM
- C=CCN1C(=O)C2(NNc3ccccc3O2)c2ccccc21 (centres undefined) — 21-fold lower, 0.718 µM
- CCC(NC(=S)NC1CCCCC1)c1ccc(C(C)C)cc1 (centres undefined) — 3.9-fold higher, 60 µM
- OC(c1nc2ccc(F)cc2[nH]1)C(O)c1nc2ccc(F)cc2[nH]1 (centres undefined) — within 1.5-fold, 10.5 µM
- COc1ccccc1CCNC(=O)C1CCN(c2nnc(C)c3c(C)n(-c4ccc(C)cc4)nc23)CC1 — 3.7-fold higher, 56 µM
- Cc1nc2c3ccccc3nc(NNC(=O)CCC(=O)NCCN3CCN(c4ccccc4)CC3)n2n1 — the same, 15.3 µM
- O=C(NNC(=S)NC(=O)c1ccccc1)c1cccnc1 — within 1.5-fold, 18.7 µM
- O=c1c2ccccc2nc(N/N=C/c2c(O)ccc3ccccc23)n1O — 2.3-fold higher, 35.2 µM
- COc1ccc(CN2CCC(n3nccc3NC(=O)CCCc3ccccc3)CC2)cc1C — 4.7-fold higher, 71.6 µM
- COc1cc(OC)cc(C(=O)NNC(=O)c2nn(C)c(=O)c3ccccc23)c1 — within 1.5-fold, 13.9 µM
- CC(C)n1cc(CN2CCC(C(=O)Nc3cccc(-c4cccc(Cl)c4)c3)CC2)cn1 — 5.1-fold higher, 78.1 µM
- Cc1ccc(-c2cc(C(=O)N/N=C/c3ccccc3O)n[nH]2)o1 — 1.9-fold lower, 8.04 µM
- C[C@@H](NC(=O)c1[nH]cnc1C(=O)Nc1ccon1)c1ccccc1 — within 1.5-fold, 19.8 µM
- O=C1Nc2ccc(Br)cc2C12NNc1ccccc1O2 (centres undefined) — 28-fold lower, 0.55 µM
- Cc1nc2c3ccccc3nc(NNC(=O)CCC(=O)N3CCCC(C)C3)n2n1 (centres undefined) — within 1.5-fold, 13.5 µM
- NC(CO)C(=O)NNCc1ccc(O)c(O)c1O (centres undefined) — within 1.5-fold, 11.5 µM
- CCOc1ccccc1CN1CCC(n2nccc2NC(=O)CCc2ccccc2)CC1 — 5.5-fold higher, 84 µM
- O=C(N/N=C/c1c(O)ccc2ccccc12)c1[nH]ncc1Br — within 1.5-fold, 11 µM
- COc1ccc(O)c(/C=N/NC(=S)NCCc2ccccc2)c1 — within 1.5-fold, 19.1 µM
- CCOC(=O)c1cnc(-n2nc(C)cc2C)nc1NNc1nc(C)cc(C)n1 — 1.6-fold higher, 25 µM

`O=C(O)C1OC(Oc2c(-c3ccc(O)c(O)c3)oc3cc(O)cc(O)c3c2=O)C(O)C(O)C1O` (centres undefined) was tested, and the EC50 was > 100 µM (inactive).
In the case of `O=C(O)c1ccccc1C(=O)Nc1cc(-c2ccccc2)[nH]n1`, the EC50 is reported as > 100 µM (inactive).
With `O=c1oc(-c2ccc(O)c(O)c2)cc2cc(O)cc(O)c12` the EC50 was > 100 µM (inactive).
